# Data as given in paper PMC11064632, “Tetracyclic homoisoflavanoid (+)-brazilin: a natural product inhibits c-di-AMP-producing enzyme and Streptococcus mutans biofilms” (Microbiology Spectrum, 2024).
# Counter-ions that a name gives are not always drawn.
# How the values were obtained:
# [1] = biological target: T1, smDAC (S. mutans diadenylate cyclase, CdaA/DacA family) (Streptococcus mutans, UniProt Q8DTC4); assay: biochemical; parameters: HPLC quantification of conversion of ATP into c-di-AMP by recombinant smDAC; conditions: read-out: Normalized Enzymatic Inhibition (%)
# T1 construct: recombinant smDAC (from 116aa to 265aa)
# Experimental: Eleven “hits” were validated using HPLC to eliminate false positives from the coralyne assay. […] (+)-Brazilin (NSC 8661), showing the greatest inhibitory activity, was further studied in a dose-dependent manner. Representative chromatograms of ATP (100 µM) and c-di-AMP (50 µM) standards were used as references to validate retention times (Fig. 3A and B). […] Representative chromatograms of HPLC reactions treated with dose-dependent concentrations were also obtained (Fig. S5). Excitingly, (+)-brazilin inhibited the conversion of ATP into c-di-AMP in a dose-dependent manner with an IC50 value of 25.1 ± 0.98 µM (Fig. 3H; Table S1). […] HPLC was also used to evaluate and compare bromophenol thiohydantoin, suramin, and tannic acid, all reported tmDisA inhibitors, to brazilin and 10% DMSO negative control.
# [2] = biological target: T1, smDAC (S. mutans diadenylate cyclase, CdaA/DacA family); assay: intrinsic tyrosine fluorescence quenching (modified Stern-Volmer); supported by HPLC enzyme inhibition, IC50 […], Ki […]; format: binding
# [3] = system: Nc1ncnc2c1ncn2[C@@H]1O[C@H](COP(=O)(O)OP(=O)(O)OP(=O)(O)O)[C@@H](O)[C@H]1O; assay: purified protein; conditions: Mn2+ substrate-binding site
# T1 sequence (Q8DTC4 entry or part of it): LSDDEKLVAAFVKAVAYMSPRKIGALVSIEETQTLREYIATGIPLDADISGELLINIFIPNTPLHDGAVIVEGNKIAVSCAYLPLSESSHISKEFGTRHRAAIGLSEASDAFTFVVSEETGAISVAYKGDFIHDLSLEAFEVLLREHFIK
Compound,inhibition at 50 µM [1] [%],also measured
"Oc1ccc2c(c1)OC[C@]1(O)Cc3cc(O)c(O)cc3[C@H]21 [NSC 8661, (+)-brazilin]",77.8,inhibition at 100 µM [1]: 87.1%; Kd [2]: 11.9 µM
O=C1NC(=S)N/C1=C\c1cc(Br)cc(Br)c1O [bromophenol thiohydantoin],3.7,–
Cc1ccc(C(=O)Nc2ccc(S(=O)(=O)O)c3cc(S(=O)(=O)O)cc(S(=O)(=O)O)c23)cc1NC(=O)c1cccc(NC(=O)Nc2cccc(C(=O)Nc3cc(C(=O)Nc4ccc(S(=O)(=O)O)c5cc(S(=O)(=O)O)cc(S(=O)(=O)O)c45)ccc3C)c2)c1 [suramin hexasodium salt],1.2,–
O=C(OC[C@H]1O[C@@H](OC(=O)c2cc(O)c(O)c(OC(=O)c3cc(O)c(O)c(O)c3)c2)[C@H](OC(=O)c2cc(O)c(O)c(OC(=O)c3cc(O)c(O)c(O)c3)c2)[C@@H](OC(=O)c2cc(O)c(O)c(OC(=O)c3cc(O)c(O)c(O)c3)c2)[C@@H]1OC(=O)c1cc(O)c(O)c(OC(=O)c2cc(O)c(O)c(O)c2)c1)c1cc(O)c(O)c(OC(=O)c2cc(O)c(O)c(O)c2)c1 [tannic acid],22.2,–
"smDAC (S. mutans diadenylate cyclase, CdaA/DacA family) (Streptococcus mutans UA159)",–,Km [3]: 93.0 ± 3.98 µM; Vmax [3]: 5.54 µM/min
